In article PMC9578396, “Intrinsic Antibacterial Activity of Xeruborbactam In Vitro: Assessing Spectrum and Mode of Action” (Antimicrobial Agents and Chemotherapy, 2022):
≈ marks a conversion by molar mass, not a printed value. Read-outs that look alike come from different tables or passages of the source.

Tests used:
Format in all cases: cell-based
Escherichia coli = experiment: Broth microdilution MIC (CLSI), Escherichia coli
Excerpt: (§1) (i) Panels of engineered bacterial strains containing various combinations of porin and efflux mutations were used. The construction of all the strains used in the study is described in detail in references, [44], and [45]. (ii) KPC-producing clinical isolates and their derivatives that lost KPC plasmids were used also. These strains and their origins are described in the Table S2. (iii) Finally, KPC-producing clinical isolates enriched in strains with porin mutations were used. The mutations identified include various deletions, insertions, nonsense mutations, and decreased expression. Most of the isolates were obtained from JMI Laboratories or International Health Management Associates (IHMA); they were collected in the course of global surveillance studies.
(§2) Bacterial isolates were subjected to broth microdilution susceptibility testing, performed according to Clinical and Laboratory Standards Institute (CLSI) methods ([46]), using panels prepared in-house. […] Xeruborbactam was synthesized at Qpex Biopharma, San Diego, CA. Avibactam was purchased from eNovation Chemicals LLC, Bridgewater, NJ, USA; zidebactam was from MedKoo Biosciences, Inc., Morrisville, NC, and nacubactam was from Advanced ChemBlocks, Hayward, CA. Durlobactam was synthesized at Acme Bioscience, Palo Alto, CA, USA.

Acinetobacter baumannii = experiment: Broth microdilution MIC (CLSI), Acinetobacter baumannii; conditions: Acinetobacter baumannii
Excerpt: as §1, §2

Enterobacterales = experiment: Broth microdilution MIC (CLSI), Enterobacterales; conditions: read-out: antibacterial potency (MIC)
Excerpt: Bacterial isolates were subjected to broth microdilution susceptibility testing, performed according to Clinical and Laboratory Standards Institute (CLSI) methods ([46]), using panels prepared in-house. Meropenem was purchased from Sandoz, and all other antibiotics were from Sigma-Aldrich. Xeruborbactam was synthesized at Qpex Biopharma, San Diego, CA. Avibactam was purchased from eNovation Chemicals LLC, Bridgewater, NJ, USA; zidebactam was from MedKoo Biosciences, Inc., Morrisville, NC, and nacubactam was from Advanced ChemBlocks, Hayward, CA. Durlobactam was synthesized at Acme Bioscience, Palo Alto, CA, USA.

Klebsiella pneumoniae = experiment: microbe, parasite or virus in culture; conditions: Klebsiella pneumoniae
Excerpt: as §1, §2

Pseudomonas aeruginosa = experiment: Broth microdilution MIC (CLSI), Pseudomonas aeruginosa; conditions: Pseudomonas aeruginosa
Excerpt: as §1, §2

[1] = EC1078, PBP2 same as MG1655, PBP3 I332V
[2] = EC1081, PBP2 same as MG1655, PBP3 Q227H
[3] = EC1085, PBP2 T331P, PBP3 A233T I332V
[4] = EC1088, PBP2 A308G, PBP3 same as MG1655
[5] = EC1098, PBP2 V217M, PBP3 YRIN ins, I532L
[6] = EC1103, PBP2 same as MG1655, PBP3 YRIN ins, Q227H, E349K, I532L
[7] = EC1105, PBP2 A543T, PBP3 YRIN ins, Q227H, E349K, I532L
[8] = EC1119, PBP2 same as MG1655, PBP3 YRIN ins, Q227H, E349K, I532L
[9] = EC1121, PBP2 V217M, PBP3 YRIN ins, E349K, I532L
[10] = Escherichia coli, strain ECM5497, wild type, read-out: MIC
[11] = Escherichia coli, strain ECM6001, ΔacrB
[12] = Escherichia coli, strain ECM6502, marR (AcrAB overexpression)
[13] = strain AB1007, wild type, read-out: MIC
[14] = strain ACM1015, ΔadeIJK ΔadeABC
[15] = strain ACM1027, adeN (AdeIJK overexpression)
[16] = strain ACM1030, adeS (AdeABC overexpression)
[17] = KPM1026a, parent, read-out: MIC
[18] = strain KPM1026a, wild type, read-out: MIC
[19] = strain KPM1027, ramR, read-out: MIC
[20] = strain KPM1171, ramR ompK36_1171, read-out: MIC
[21] = strain KPM2040, ompK36_2040, read-out: MIC
[22] = strain KPM2613, ΔompK35 ompK36_2040
[23] = strain PAM1020, wild type, read-out: MIC
[24] = strain PAM1032, nalB (MexAB-OprM overexpression)
[25] = strain PAM1033, nfxB (MexCD-OprJ overexpression)
[26] = strain PAM1034, nfxC (MexEF-OprN overexpression)

CC1=C[C@@H]2CN(C(=O)N2OS(=O)(=O)O)[C@@H]1C(N)=O [Durlobactam]
MIC (Escherichia coli; [1]): 8 | MIC (Escherichia coli; [2]): 0.25 | MIC (Escherichia coli; [3]): 32 | MIC (Escherichia coli; [4]): 0.5 | MIC (Escherichia coli; EC1097, PBP2 M574I, PBP3 Q227H): 1 | MIC (Escherichia coli; [5]): 0.5 | MIC (Escherichia coli; [6]): 0.25 | MIC (Escherichia coli; [7]): 1 | MIC (Escherichia coli; [8]): 8 | MIC (Escherichia coli; [9]): 0.5 | MIC (Escherichia coli; [10]): 0.5 µg/mL | MIC (Escherichia coli; [11]): 0.5 µg/mL | MIC (Escherichia coli; [12]): 0.25 µg/mL | MIC (Acinetobacter baumannii; [13]): 64 µg/mL | MIC (Acinetobacter baumannii; strain ACM1013, ΔadeIJK): 32 µg/mL | MIC (Acinetobacter baumannii; strain ACM1014, ΔadeABC): 64 µg/mL | MIC (Acinetobacter baumannii; [14]): 16 µg/mL | MIC (Acinetobacter baumannii; [15]): 128 µg/mL | MIC (Acinetobacter baumannii; [16]): 64 µg/mL | MIC (Enterobacterales): 0.125 to 0.5 µg/mL (≈ 0.451 to 1.8 µM) | MIC (Klebsiella pneumoniae; KPM1026a, alone, read-out: MIC): 0.25 µg/mL | MIC (Klebsiella pneumoniae; [17]): 0.25 µg/mL | MIC (Klebsiella pneumoniae; KPM3532 (TolQ::M189K), alone): 8 µg/mL | MIC (Klebsiella pneumoniae; KPM3532, TolQ::M189K): 8 µg/mL | MIC (Klebsiella pneumoniae; KPM3534 (TolQ::S31F), alone): 16 µg/mL | MIC (Klebsiella pneumoniae; KPM3534, TolQ::S31F): 16 µg/mL | MIC (Klebsiella pneumoniae; KPM4235, TolQ::IP(183–1844)PR): 16 µg/mL | MIC (Klebsiella pneumoniae; KPM4236, TolQ::TAA at aa 103): 16 µg/mL | MIC (Klebsiella pneumoniae; KPM4238, TolQ::S25F): 16 µg/mL | MIC (Klebsiella pneumoniae; KPM4239, TolQ::S28F): 16 µg/mL | MIC (Klebsiella pneumoniae; KPM4240, TolQ::S25Y): 16 µg/mL | MIC (Klebsiella pneumoniae; [18]): 0.5 µg/mL | MIC (Klebsiella pneumoniae; [19]): 0.5 µg/mL | MIC (Klebsiella pneumoniae; [20]): 32 µg/mL | MIC (Klebsiella pneumoniae; [21]): 4 µg/mL | MIC (Klebsiella pneumoniae; strain KPM2600, ΔompK35): 0.5 µg/mL | MIC (Klebsiella pneumoniae; [22]): 8 µg/mL | MIC (Klebsiella pneumoniae; strain KPM2696, ΔacrB): 0.25 µg/mL | MIC (Pseudomonas aeruginosa; after inactivation of MexAB-OprM, read-out: MIC): 8 µg/mL | MIC (Pseudomonas aeruginosa; before inactivation of MexAB-OprM (wild type), read-out: MIC): 64 µg/mL | MIC (Pseudomonas aeruginosa; [23]): 64 µg/mL | MIC (Pseudomonas aeruginosa; [24]): > 256 µg/mL | MIC (Pseudomonas aeruginosa; [25]): 4 µg/mL | MIC (Pseudomonas aeruginosa; [26]): 128 µg/mL | MIC (Pseudomonas aeruginosa; strain PAM1106, mexA::Tet): 8 µg/mL | MIC (Pseudomonas aeruginosa; strain PAM1154, oprM::Hg): 8 µg/mL

O=C(NNC(=O)[C@@H]1CC[C@@H]2CN1C(=O)N2OS(=O)(=O)O)[C@@H]1CCCNC1 [Zidebactam]
MIC (Escherichia coli; [1]): 8 | MIC (Escherichia coli; [2]): 0.125 | MIC (Escherichia coli; [3]): 16 | MIC (Escherichia coli; [4]): 0.25 | MIC (Escherichia coli; EC1097, PBP2 M574I, PBP3 Q227H): 0.25 | MIC (Escherichia coli; [5]): 0.25 | MIC (Escherichia coli; [6]): 0.25 | MIC (Escherichia coli; [7]): 0.5 | MIC (Escherichia coli; [8]): 8 | MIC (Escherichia coli; [9]): 0.5 | MIC (Escherichia coli; [10]): 0.125 µg/mL | MIC (Escherichia coli; [11]): 0.125 µg/mL | MIC (Escherichia coli; [12]): 0.5 µg/mL | fold effect on MIC (Escherichia coli; overexpression of AcrAB in E. coli): 4 fold | MIC (Acinetobacter baumannii; [13]): > 256 µg/mL | MIC (Acinetobacter baumannii; strain ACM1013, ΔadeIJK): > 256 µg/mL | MIC (Acinetobacter baumannii; strain ACM1014, ΔadeABC): > 256 µg/mL | MIC (Acinetobacter baumannii; [14]): > 256 µg/mL | MIC (Acinetobacter baumannii; [15]): > 256 µg/mL | MIC (Acinetobacter baumannii; [16]): > 256 µg/mL | MIC (Enterobacterales): 0.125 to 0.5 µg/mL (≈ 0.319 to 1.28 µM) | MIC (Klebsiella pneumoniae; KPM1026a, alone, read-out: MIC): 0.25 µg/mL | MIC (Klebsiella pneumoniae; [17]): 0.25 µg/mL | MIC (Klebsiella pneumoniae; KPM3532 (TolQ::M189K), alone): > 64 µg/mL | MIC (Klebsiella pneumoniae; KPM3532, TolQ::M189K): > 64 µg/mL | MIC (Klebsiella pneumoniae; KPM3534 (TolQ::S31F), alone): > 64 µg/mL | MIC (Klebsiella pneumoniae; KPM3534, TolQ::S31F): > 64 µg/mL | MIC (Klebsiella pneumoniae; KPM4235, TolQ::IP(183–1844)PR): > 64 µg/mL | MIC (Klebsiella pneumoniae; KPM4236, TolQ::TAA at aa 103): > 64 µg/mL | MIC (Klebsiella pneumoniae; KPM4238, TolQ::S25F): > 64 µg/mL | MIC (Klebsiella pneumoniae; KPM4239, TolQ::S28F): > 64 µg/mL | MIC (Klebsiella pneumoniae; KPM4240, TolQ::S25Y): > 64 µg/mL | MIC (Klebsiella pneumoniae; [18]): 0.25 µg/mL | MIC (Klebsiella pneumoniae; [19]): 0.25 µg/mL | MIC (Klebsiella pneumoniae; [20]): > 64 µg/mL | MIC (Klebsiella pneumoniae; [21]): > 64 µg/mL | MIC (Klebsiella pneumoniae; strain KPM2600, ΔompK35): 0.25 µg/mL | MIC (Klebsiella pneumoniae; [22]): > 64 µg/mL | MIC (Klebsiella pneumoniae; strain KPM2696, ΔacrB): 0.25 µg/mL | MIC (Pseudomonas aeruginosa; [23]): 2 µg/mL | MIC (Pseudomonas aeruginosa; [24]): 4 µg/mL | MIC (Pseudomonas aeruginosa; [25]): 0.125 µg/mL | MIC (Pseudomonas aeruginosa; [26]): 2 µg/mL | MIC (Pseudomonas aeruginosa; strain PAM1106, mexA::Tet): 2 µg/mL | MIC (Pseudomonas aeruginosa; strain PAM1154, oprM::Hg): 2 µg/mL
